Test results: PubChem BioAssay AID180 (DTP/NCI, 2004)
Several values for one entry are separate records, joined by “and”; a condition that tells them apart may be missing. Identical values can stand only once.

Test system: BDF1 mice, Adenocarcinoma 755 s.c., tumor weight T/C
Experiment: NCI In Vivo Anticancer Drug Screen. Data for tumor model Adenocarcinoma 755 (subcutaneous) in B6D2F1 (BDF1) mice
Conditions: endpoint: mean tumor weight, higher = larger tumour
How it was run: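 Transplantable tumor implanted; mice dosed with compound or vehicle; survival or tumor size recorded; ratio of treated to vehicle control reported.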

[1] = dose: 25.0 mg/kg/injection, schedule: Q01DX011 (ip), vehicle: methylcellulose (MC)
[2] = dose: 125.0 mg/kg/injection, schedule: Q01DX011 (ip), vehicle: carboxymethylcellulose (CMC)
[3] = dose: 250.0 mg/kg/injection, schedule: Q01DX011 (ip), vehicle: carboxymethylcellulose (CMC)
[4] = dose: 50.0 mg/kg/injection, schedule: Q01DX011 (ip), vehicle: saline
[5] = dose: 30.0 mg/kg/injection, schedule: Q01DX011 (ip), vehicle: saline

CCCn1cnc2c(SCc3ccccc3Cl)nc(N)nc21
T/C (dose: 0.78 mg/kg/injection, schedule: Q01DX011 (ip), vehicle: methylcellulose (MC)): 85 % of control
T/C (dose: 1.56 mg/kg/injection, schedule: Q01DX011 (ip), vehicle: methylcellulose (MC)): 72 % of control
T/C (dose: 3.0 mg/kg/injection, schedule: Q01DX011 (ip), vehicle: carboxymethylcellulose (CMC)): 70 % of control
T/C (dose: 3.12 mg/kg/injection, schedule: Q01DX011 (ip), vehicle: methylcellulose (MC)): 62 % of control
T/C (dose: 6.0 mg/kg/injection, schedule: Q01DX011 (ip), vehicle: carboxymethylcellulose (CMC)): 47 % of control
T/C (dose: 6.25 mg/kg/injection, schedule: Q01DX011 (ip), vehicle: methylcellulose (MC)): 60 % of control
T/C (dose: 12.0 mg/kg/injection, schedule: Q01DX011 (ip), vehicle: carboxymethylcellulose (CMC)): 45 % of control
T/C (dose: 12.5 mg/kg/injection, schedule: Q01DX011 (ip), vehicle: methylcellulose (MC)): 43 % of control
T/C (dose: 24.0 mg/kg/injection, schedule: Q01DX011 (ip), vehicle: carboxymethylcellulose (CMC)): 17 % of control
T/C [1]: 7 % of control
T/C (dose: 48.0 mg/kg/injection, schedule: Q01DX011 (ip), vehicle: carboxymethylcellulose (CMC)): 4 % of control
T/C (dose: 96.0 mg/kg/injection, schedule: Q01DX011 (ip), vehicle: carboxymethylcellulose (CMC)): 2 % of control
T/C (dose: 190.0 mg/kg/injection, schedule: Q01DX011 (ip), vehicle: carboxymethylcellulose (CMC)): 3 % of control
T/C (dose: 192.0 mg/kg/injection, schedule: Q01DX011 (ip), vehicle: carboxymethylcellulose (CMC)): 1 % of control
T/C (dose: 380.0 mg/kg/injection, schedule: Q01DX011 (ip), vehicle: carboxymethylcellulose (CMC)): 4 % of control

O=CN(O)CC(=O)O
T/C (dose: 62.5 mg/kg/injection, schedule: Q01DX011 (ip), vehicle: carboxymethylcellulose (CMC)): 98 % of control
T/C [2]: 86 % of control
T/C [3]: 85 % of control

NC1C(O)C(O)C(Nc2ncnc3nc[nH]c23)OC1C(O)CO (centres undefined)
T/C (dose: 0.18 mg/kg/injection, schedule: Q## X000 (ip), vehicle: carboxymethylcellulose (CMC)): 65 % of control
T/C (dose: 0.35 mg/kg/injection, schedule: Q## X000 (ip), vehicle: carboxymethylcellulose (CMC)): 65 % of control
T/C (dose: 0.7 mg/kg/injection, schedule: Q## X000 (ip), vehicle: carboxymethylcellulose (CMC)): 67 % of control
T/C (dose: 1.35 mg/kg/injection, schedule: Q## X000 (ip), vehicle: carboxymethylcellulose (CMC)): 107 % of control

CCOC(=O)CCCc1ccc(N=NN(C)CC(C)C)cc1
T/C [2]: 47 % of control
T/C [3]: 28 % of control

O=c1[nH]cnc2c1ncn2C1CCCC1
T/C (dose: 18.1 mg/kg/injection, schedule: Q01DX011 (ip), vehicle: carboxymethylcellulose (CMC)): 81 % of control
T/C (dose: 18.12 mg/kg/injection, schedule: Q01DX011 (ip), vehicle: carboxymethylcellulose (CMC)): 124 % of control
T/C (dose: 36.2 mg/kg/injection, schedule: Q01DX011 (ip), vehicle: carboxymethylcellulose (CMC)): 78 % of control
T/C (dose: 36.25 mg/kg/injection, schedule: Q01DX011 (ip), vehicle: carboxymethylcellulose (CMC)): 90 % of control
T/C (dose: 56.0 mg/kg/injection, schedule: Q01DX001 (ip), vehicle: carboxymethylcellulose (CMC)): 70 % of control
T/C (dose: 72.5 mg/kg/injection, schedule: Q01DX011 (ip), vehicle: carboxymethylcellulose (CMC)): 100 % of control and 87 % of control
T/C (dose: 112.0 mg/kg/injection, schedule: Q01DX001 (ip), vehicle: carboxymethylcellulose (CMC)): 70 % of control
T/C (dose: 145.0 mg/kg/injection, schedule: Q01DX011 (ip), vehicle: carboxymethylcellulose (CMC)): 75 % of control and 85 % of control
T/C (dose: 225.0 mg/kg/injection, schedule: Q01DX001 (ip), vehicle: carboxymethylcellulose (CMC)): 37 % of control

Ic1ncnc2c1ncn2C1CCCCO1 (centres undefined)
T/C (dose: 5.0 mg/kg/injection, schedule: Q01DX011 (ip), vehicle: other): 123 % of control
T/C (dose: 10.0 mg/kg/injection, schedule: Q01DX011 (ip), vehicle: other): 47 % of control
T/C (dose: 15.0 mg/kg/injection, schedule: Q01DX011 (ip), vehicle: other): 94 % of control
T/C (dose: 20.0 mg/kg/injection, schedule: Q01DX011 (ip), vehicle: other): 68 % of control and 70 % of control
T/C (dose: 30.0 mg/kg/injection, schedule: Q01DX011 (ip), vehicle: other): 100 % of control and 76 % of control
T/C (dose: 31.0 mg/kg/injection, schedule: Q01DX011 (ip), vehicle: other): 14 % of control
T/C (dose: 62.0 mg/kg/injection, schedule: Q01DX011 (ip), vehicle: other): 14 % of control

CCC(C)Cn1cnc2c(SCC(=O)O)nc(N)nc21 (centres undefined)
T/C [1]: 78 % of control
T/C (dose: 80.0 mg/kg/injection, schedule: Q01DX011 (ip), vehicle: methylcellulose (MC)): 43 % of control
T/C (dose: 250.0 mg/kg/injection, schedule: Q01DX011 (ip), vehicle: methylcellulose (MC)): 45 % of control

COc1ccc(C2=NC(=O)NC2c2ccc(OC)cc2)cc1 (centres undefined)
T/C (dose: 10.0 mg/kg/injection, schedule: Q01DX011 (ip), vehicle: saline): 112 % of control
T/C [4]: 18 % of control

C[N+](C)(C)c1ncnc2c1ncn2C1CCCCO1 (centres undefined)
T/C (dose: 33.0 mg/kg/injection, schedule: Q01DX011 (ip), vehicle: saline): 58 % of control
T/C (dose: 100.0 mg/kg/injection, schedule: Q01DX011 (ip), vehicle: saline): 12 % of control

Cn1c(N)nc2c(ncn2C2OC(CO)C(O)C2O)c1=O (centres undefined)
T/C [5]: 101 % of control
T/C (dose: 60.0 mg/kg/injection, schedule: Q01DX011 (ip), vehicle: saline): 94 % of control
T/C (dose: 120.0 mg/kg/injection, schedule: Q01DX011 (ip), vehicle: saline): 116 % of control

c1nc([N+]23CCC(CC2)CC3)c2[nH]cnc2n1
T/C (dose: 12.5 mg/kg/injection, schedule: Q01DX011 (ip), vehicle: saline): 101 % of control
T/C (dose: 20.0 mg/kg/injection, schedule: Q01DX011 (ip), vehicle: saline): 98 % of control
T/C (dose: 25.0 mg/kg/injection, schedule: Q01DX011 (ip), vehicle: saline): 56 % of control
T/C [5]: 50 % of control
T/C (dose: 40.0 mg/kg/injection, schedule: Q01DX011 (ip), vehicle: saline): 41 % of control
T/C [4]: 19 % of control and 29 % of control

CC(=O)OCC1OC(n2c(Br)nc3c(N)ncnc32)C(OC(C)=O)C1OC(C)=O (centres undefined)
T/C (dose: 30.0 mg/kg/injection, schedule: Q01DX011 (ip), vehicle: carboxymethylcellulose (CMC)): 88 % of control
T/C (dose: 60.0 mg/kg/injection, schedule: Q01DX011 (ip), vehicle: carboxymethylcellulose (CMC)): 88 % of control
T/C (dose: 120.0 mg/kg/injection, schedule: Q01DX011 (ip), vehicle: carboxymethylcellulose (CMC)): 104 % of control
T/C (dose: 240.0 mg/kg/injection, schedule: Q01DX011 (ip), vehicle: carboxymethylcellulose (CMC)): 113 % of control

CS(=O)(=O)OCCC(=O)Nc1ccc(NC(=O)CCOS(C)(=O)=O)cc1
T/C (dose: 46.0 mg/kg/injection, schedule: Q01DX011 (ip), vehicle: methylcellulose (MC)): 117 % of control
T/C (dose: 91.0 mg/kg/injection, schedule: Q01DX011 (ip), vehicle: methylcellulose (MC)): 111 % of control
T/C (dose: 183.0 mg/kg/injection, schedule: Q01DX011 (ip), vehicle: methylcellulose (MC)): 85 % of control
T/C (dose: 375.0 mg/kg/injection, schedule: Q01DX011 (ip), vehicle: methylcellulose (MC)): 117 % of control

CC(=O)NC1=C(N2CC2)C(=O)C(NC(C)=O)=C(N2CC2)C1=O
T/C (dose: 0.02 mg/kg/injection, schedule: Q01DX011 (ip), vehicle: carboxymethylcellulose (CMC)): 91 % of control
T/C (dose: 0.02 mg/kg/injection, schedule: Q01DX011 (ip), vehicle: methylcellulose (MC)): 71 % of control
T/C (dose: 0.03 mg/kg/injection, schedule: Q01DX011 (ip), vehicle: carboxymethylcellulose (CMC)): 65 % of control
T/C (dose: 0.05 mg/kg/injection, schedule: Q01DX011 (ip), vehicle: methylcellulose (MC)): 69 % of control
T/C (dose: 0.06 mg/kg/injection, schedule: Q01DX011 (ip), vehicle: carboxymethylcellulose (CMC)): 51 % of control
T/C (dose: 0.1 mg/kg/injection, schedule: Q01DX011 (ip), vehicle: methylcellulose (MC)): 50 % of control
T/C (dose: 0.12 mg/kg/injection, schedule: Q01DX011 (ip), vehicle: carboxymethylcellulose (CMC)): 21 % of control

NC(=O)N(CCCl)N=O
T/C (dose: 0.23 mg/kg/injection, schedule: Q01DX011 (ip), vehicle: methylcellulose (MC)): 54 % of control and 59 % of control
T/C (dose: 0.9 mg/kg/injection, schedule: Q01DX011 (ip), vehicle: methylcellulose (MC)): 34 % of control and 38 % of control
T/C (dose: 1.8 mg/kg/injection, schedule: Q01DX011 (ip), vehicle: methylcellulose (MC)): 27 % of control
